Measurements taken from publication PMC9946977, “Identification of linderalactone as a natural inhibitor of SHP2 to ameliorate CCl4-induced liver fibrosis” (Frontiers in Pharmacology, 2023).

Tests used:
SHP2 PTP domain = molecular target: T1, SHP2 PTP domain (Homo sapiens, UniProt Q06124); experiment: SHP2 inhibition assay (DiFMUP) with SHP2-PTP; HTS and dose-response; assay type: biochemical
T1 construct: Human SHP2 PTP domain (A237–I529) expression constructs; His-tag; made in house; host or cells: E. coli BL21 (DE3)
T1 sequence (Q06124 237-529): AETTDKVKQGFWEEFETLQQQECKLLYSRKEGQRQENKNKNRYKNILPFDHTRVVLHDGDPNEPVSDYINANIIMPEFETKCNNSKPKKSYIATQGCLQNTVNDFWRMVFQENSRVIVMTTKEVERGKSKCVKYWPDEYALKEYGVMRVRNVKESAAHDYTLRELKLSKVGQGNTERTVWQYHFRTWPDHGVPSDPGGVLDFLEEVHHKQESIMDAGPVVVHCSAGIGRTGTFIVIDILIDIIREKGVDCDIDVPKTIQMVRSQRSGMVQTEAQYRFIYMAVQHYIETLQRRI
Method: Human SHP2 PTP domain (A237–I529) expression constructs were engineered by cloning PTPN11 (NP_002825.3) into the pET30 plasmid with a His-tag to support further protein purification. The K366A/Q510A double mutation was introduced into the wild-type template using a site-directed mutagenesis kit (E0554S; New England Biolabs). The expression constructs were sequenced and transformed into BL21 (DE3)-competent cells. E. coli cells were grown at 37°C in an LB culture medium in the presence of […] kanamycin until the OD600 reached 1.0. The medium was then cooled to 18°C and 1 mM isopropyl ß-D-1-thiogalactopyranoside (IPTG) was added to induce protein expression overnight.
A surrogate phosphatase substrate, 6,8-difluoro-4-methylumbelliferyl phosphate (DiFMUP, Thermo Fisher, #D22065), was used to monitor the catalytic activity of SHP2 in a prompt fluorescence assay format. Specifically, the DiFMUP phosphatase assay was performed at 20°C in a 384-well Griener CELLSTAR black polystyrene plate in the buffer condition of 60 mM HEPES (pH7.5), 75 mM NaCl, 75 mM KCl, 1 mM EDTA, 0.05% Tween-20, 5 mM dithiothreitol (DTT). The final reaction volume was 25 μL. NP compound libraries were obtained from TargetMol at a stock concentration of 10 mM, dissolved in DMSO. The purity of the active compound LIN used in this study is 96.27% as tested by HPLC analysis. The HPLC traces is shown in Supporting Information. We co-incubated 0.5 nM of SHP2-PTP enzyme with tested NPs for 30 min at 20°C, followed by the addition of DiFMUP into the reaction. After 30 min, 5 μL of bpV(phen) solution was added to quench the dephosphorylation reaction. The signals were read on a plate reader (SpectraMax iD5, Molecular Devices). The excitation and emission wavelengths were 340 and 450 nm, respectively. The inhibitor dose-response curves were evaluated using a normalised IC50 regression curve fitting with control-based normalisation. For the full-length SHP2 inhibition assay, 0.5 μM of a bisphosphorylated pIRS-1 peptide (ChinaPeptides Ltd. Shanghai) was added for partial SHP2 activation. […]

full-length SHP2 = molecular target: T2, full-length SHP2 (Homo sapiens, UniProt Q06124); experiment: full-length SHP2 inhibition assay (DiFMUP, pIRS-1 activated); assay type: biochemical; settings: activating peptide p-IRS-1 supplemented; read-out: IC50 on full length SHP2 (SHP2-FL)
T2 construct: used for the expression and purification of the full-length SHP2; made in house; host or cells: E. coli (similar protocol as for SHP2-PTP)
T2 sequence (Q06124 1-593): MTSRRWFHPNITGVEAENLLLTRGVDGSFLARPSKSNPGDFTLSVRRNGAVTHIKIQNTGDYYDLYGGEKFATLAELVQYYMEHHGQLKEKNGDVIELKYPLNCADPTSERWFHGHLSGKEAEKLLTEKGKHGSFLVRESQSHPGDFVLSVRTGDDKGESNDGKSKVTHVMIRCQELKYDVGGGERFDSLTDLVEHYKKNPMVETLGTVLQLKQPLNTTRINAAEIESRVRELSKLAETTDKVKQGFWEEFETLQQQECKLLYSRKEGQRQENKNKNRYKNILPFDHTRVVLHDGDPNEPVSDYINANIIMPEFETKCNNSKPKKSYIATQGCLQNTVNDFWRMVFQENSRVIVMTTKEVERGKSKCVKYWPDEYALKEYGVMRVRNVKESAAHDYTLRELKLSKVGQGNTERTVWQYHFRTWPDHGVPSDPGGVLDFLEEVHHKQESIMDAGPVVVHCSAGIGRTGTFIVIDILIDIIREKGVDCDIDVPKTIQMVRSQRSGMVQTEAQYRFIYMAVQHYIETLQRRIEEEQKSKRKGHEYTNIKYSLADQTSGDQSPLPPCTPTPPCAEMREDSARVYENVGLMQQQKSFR
Method: Cell pellets were collected and suspended in a buffer of 50 mM Tris-HCl (Ph = 8.5), 150 mM NaCl supplemented with 10% glycerol, and lysed by homogeniser (JN-BIO, China). After centrifugation, the collected supernatants were diluted with a Tris-HCl buffer (pH = 8.5) containing 50 mM imidazole and 150 mM NaCl and then loaded onto a Ni-NTA column (#88221, Thermo). The bound SHP2 protein was eluted with a buffer containing 150 and 300 mM imidazole. The pooled protein was loaded onto a HiTrap Q column after dilution in 25 mM Tris-HCl buffer. After elution using a linear gradient of NaCl (0–0.5 M), peak fractions containing the SHP2 protein were concentrated and applied to a gel filtration Superdex 200 column (GE Healthcare). Purified SHP2-PTP proteins were flash-frozen and stored. Similar expression and purification protocols were used for the expression and purification of the full-length SHP2 and SHP2-PTP ^K366A/Q510A double mutants.
A surrogate phosphatase substrate, 6,8-difluoro-4-methylumbelliferyl phosphate (DiFMUP, Thermo Fisher, #D22065), was used to monitor the catalytic activity of SHP2 in a prompt fluorescence assay format. […] The signals were read on a plate reader (SpectraMax iD5, Molecular Devices). […] The inhibitor dose-response curves were evaluated using a normalised IC50 regression curve fitting with control-based normalisation. […]

- IC50 (SHP2 PTP domain; 0.5 nM SHP2-PTP, DiFMUP substrate, 30 min co-incubation at 20°C, read-out: IC50 against the SHP2 PTP domain): 1.87 ± 0.85 µM
- IC50 (full-length SHP2): 1.98 µM
Structure (SMILES): C/C1=C\CCC2=C[C@@H](OC2=O)c2c(C)coc2C1 [LIN, linderalactone]
- inhibitory activity in verification experiment of initial hits (SHP2 PTP domain; dose-response confirmation of HTS hits): best inhibitory activity among the screened hits
